Data from patent publication US20260226068A1, “IMIDAZOTRIAZINE IL-17A MODULATORS AND USES THEREOF” (DICE ALPHA, INC., priority 2023, published 2026).

How the values were obtained:
IL-17A/A = molecular target: T1, IL-17A/A (Homo sapiens, UniProt Q16552); test: IL-17A/A HEK-Blue cell assay (SEAP reporter); format: cell-based; conditions: HEK-Blue IL-17A reporter cells, IL17A/A 5 ng/mL, 20 hours, SEAP read at A630; read-out: HEK-Blue IL17AA (IC50 for IL-17A/A inhibition)
T1 construct: purchased Genscript Z03228
T1 sequence (Q16552 24-155): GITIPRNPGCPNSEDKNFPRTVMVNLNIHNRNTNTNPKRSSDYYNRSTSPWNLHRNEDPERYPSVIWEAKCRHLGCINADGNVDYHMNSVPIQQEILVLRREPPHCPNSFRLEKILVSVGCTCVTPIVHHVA

IL-17A/F = molecular target: T2, IL-17A/F (Homo sapiens, UniProt Q16552+Q96PD4); test: IL-17A/F HEK-Blue cell assay (SEAP reporter); format: cell-based; conditions: HEK-Blue IL-17A reporter cells, IL17A/F 5 ng/mL, 20 hours, SEAP read at A630; read-out: HEK-Blue IL17AF (IC50 for IL-17A/F inhibition)
T2 construct: purchased R&D Systems
T2 sequence (Q16552 24-155): T1 sequence (Q16552 24-155)
T2 sequence (Q96PD4 31-163): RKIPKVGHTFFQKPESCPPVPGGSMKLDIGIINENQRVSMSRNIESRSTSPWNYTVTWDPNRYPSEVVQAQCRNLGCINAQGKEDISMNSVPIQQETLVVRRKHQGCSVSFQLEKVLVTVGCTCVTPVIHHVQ

Row | Compound | IC50 (IL-17A/A) | IC50 (IL-17A/F)
1 | CCn1nccc1C(=O)N[C@H](c1cn2nc(C[C@H]3C[C@@H](C(F)(F)F)CNC3=O)c(N3CCN(C)[C@H](C)C3)nc2n1)C1CCC(F)(F)CC1 [Compound 298, N—((S)-(4,4-difluorocyclohexyl)(3-((R)-3,4-dimethylpiperazin-1-yl)-2-(((3R,5R)-2-oxo-5-(trifluoromethyl)piperidin-3-yl)methyl)imidazo[1,2-b][1,2,4]triazin-6-yl)methyl)-1-ethyl-1H-pyrazole-5-carboxamide] | < 100 nM | < 100 nM
2 | CCn1nccc1C(=O)N[C@H](c1cn2nc(C[C@H]3C[C@@H](C(F)(F)F)CNC3=O)c(C3CCNCC3)nc2n1)C1CCC(F)(F)CC1 [Compound 299, N—((S)-(4,4-difluorocyclohexyl)(2-(((3R,5R)-2-oxo-5-(trifluoromethyl)piperidin-3-yl)methyl)-3-(piperidin-4-yl)imidazo[1,2-b][1,2,4]triazin-6-yl)methyl)-1-ethyl-1H-pyrazole-5-carboxamide] | 100 to 1000 nM | > 1000 nM
3 | CCn1nccc1C(=O)N[C@H](c1cn2nc(C[C@H]3C[C@@H](C(F)(F)F)CNC3=O)c(C3CCN(C)CC3)nc2n1)C1CCC(F)(F)CC1 [Compound 300, N—((S)-(4,4-difluorocyclohexyl)(3-(1-methylpiperidin-4-yl)-2-(((3R,5R)-2-oxo-5-(trifluoromethyl)piperidin-3-yl)methyl)imidazo[1,2-b][1,2,4]triazin-6-yl)methyl)-1-ethyl-1H-pyrazole-5-carboxamide] | 100 to 1000 nM | > 1000 nM
4 | CCn1nccc1C(=O)N[C@H](c1cn2nc(C[C@H]3C[C@@H](C(F)(F)F)CNC3=O)c(C3CNC3)nc2n1)C1CCC(F)(F)CC1 [Compound 301, N—((S)-(3-(azetidin-3-yl)-2-(((3R,5R)-2-oxo-5-(trifluoromethyl)piperidin-3-yl)methyl)imidazo[1,2-b][1,2,4]triazin-6-yl)(4,4-difluorocyclohexyl)methyl)-1-ethyl-1H-pyrazole-5-carboxamide] | < 100 nM | > 1000 nM
5 | CCn1nccc1C(=O)N[C@H](c1cn2nc(C[C@H]3C[C@@H](C(F)(F)F)CNC3=O)c(C3CN(C)C3)nc2n1)C1CCC(F)(F)CC1 [Compound 302, N—((S)-(4,4-difluorocyclohexyl)(3-(1-methylazetidin-3-yl)-2-(((3R,5R)-2-oxo-5-(trifluoromethyl)piperidin-3-yl)methyl)imidazo[1,2-b][1,2,4]triazin-6-yl)methyl)-1-ethyl-1H-pyrazole-5-carboxamide] | < 100 nM | > 1000 nM
6 | CCn1nccc1C(=O)N[C@H](c1cn2nc(C[C@H]3C[C@@H](C)CNC3=O)c(C3CCOCC3)nc2n1)C1CCC(F)(F)CC1 [Compound 303] | < 100 nM | > 1000 nM
7 | CCn1nccc1C(=O)N[C@H](c1cn2nc(C[C@@H]3C[C@@H](C)CNC3=O)c(C3CCOCC3)nc2n1)C1CCC(F)(F)CC1 [Compound 304] | < 100 nM | > 1000 nM
8 | CCn1nccc1C(=O)N[C@H](c1cn2nc(C[C@H]3C[C@H](C(F)(F)F)CNC3=O)c(N3CCO[C@H](C)C3)nc2n1)[C@@H]1CCCC(F)(F)C1 [Compound 305, N—((S)—((R)-3,3-difluorocyclohexyl)(3-((R)-2-methylmorpholino)-2-(((3R,5S)-2-oxo-5-(trifluoromethyl)piperidin-3-yl)methyl)imidazo[1,2-b][1,2,4]triazin-6-yl)methyl)-1-ethyl-1H-pyrazole-5-carboxamide] | < 100 nM | < 100 nM
9 | CCn1nccc1C(=O)N[C@H](c1cn2nc(C[C@H]3C[C@H](C(F)(F)F)CNC3=O)c(N3CCO[C@@H](C)C3)nc2n1)[C@@H]1CCCC(F)(F)C1 [Compound 306, N—((S)—((R)-3,3-difluorocyclohexyl)(3-((S)-2-methylmorpholino)-2-(((3R,5S)-2-oxo-5-(trifluoromethyl)piperidin-3-yl)methyl)imidazo[1,2-b][1,2,4]triazin-6-yl)methyl)-1-ethyl-1H-pyrazole-5-carboxamide] | < 100 nM | 100 to 1000 nM
10 | C[C@@H]1CN(c2nc3nc([C@@H](NC(=O)c4ccnn4C)[C@@H]4CCCC(F)(F)C4)cn3nc2C[C@H]2C[C@@H](C(F)(F)F)CNC2=O)CCO1 [Compound 307, N—((S)—((R)-3,3-difluorocyclohexyl)(3-((R)-2-methylmorpholino)-2-(((3R,5R)-2-oxo-5-(trifluoromethyl)piperidin-3-yl)methyl)imidazo[1,2-b][1,2,4]triazin-6-yl)methyl)-1-methyl-1H-pyrazole-5-carboxamide] | < 100 nM | < 100 nM
11 | C[C@H]1CN(c2nc3nc([C@@H](NC(=O)c4ccnn4C)[C@@H]4CCCC(F)(F)C4)cn3nc2C[C@H]2C[C@@H](C(F)(F)F)CNC2=O)CCO1 [Compound 308, N—((S)—((R)-3,3-difluorocyclohexyl)(3-((S)-2-methylmorpholino)-2-(((3R,5R)-2-oxo-5-(trifluoromethyl)piperidin-3-yl)methyl)imidazo[1,2-b][1,2,4]triazin-6-yl)methyl)-1-methyl-1H-pyrazole-5-carboxamide] | < 100 nM | 100 to 1000 nM
12 | C[C@@H]1CN(c2nc3nc([C@@H](NC(=O)c4ccnn4C)[C@@H]4CCCC(F)(F)C4)cn3nc2C[C@H]2C[C@H](C(F)(F)F)CNC2=O)CCO1 [Compound 309, N—((S)—((R)-3,3-difluorocyclohexyl)(3-((R)-2-methylmorpholino)-2-(((3R,5S)-2-oxo-5-(trifluoromethyl)piperidin-3-yl)methyl)imidazo[1,2-b][1,2,4]triazin-6-yl)methyl)-1-methyl-1H-pyrazole-5-carboxamide] | < 100 nM | 100 to 1000 nM
13 | C[C@H]1CN(c2nc3nc([C@@H](NC(=O)c4ccnn4C)[C@@H]4CCCC(F)(F)C4)cn3nc2C[C@H]2C[C@H](C(F)(F)F)CNC2=O)CCO1 [Compound 310, N—((S)—((R)-3,3-difluorocyclohexyl)(3-((S)-2-methylmorpholino)-2-(((3R,5S)-2-oxo-5-(trifluoromethyl)piperidin-3-yl)methyl)imidazo[1,2-b][1,2,4]triazin-6-yl)methyl)-1-methyl-1H-pyrazole-5-carboxamide] | < 100 nM | 100 to 1000 nM
14 | Cc1nonc1C(=O)N[C@H](c1cn2nc(C[C@H]3C[C@@H](C(F)(F)F)CNC3=O)c(N3CCN(C)CC3)nc2n1)C1CCC(F)(F)CC1 [Compound 311, N—((S)-(4,4-difluorocyclohexyl)(3-(4-methylpiperazin-1-yl)-2-(((3R,5R)-2-oxo-5-(trifluoromethyl)piperidin-3-yl)methyl)imidazo[1,2-b][1,2,4]triazin-6-yl)methyl)-4-methyl-1,2,5-oxadiazole-3-carboxamide] | < 100 nM | > 1000 nM
15 | CCc1nonc1C(=O)N[C@H](c1cn2nc(C[C@H]3C[C@@H](C(F)(F)F)CNC3=O)c(N3CCN(C)CC3)nc2n1)C1CCC(F)(F)CC1 [Compound 312, N—((S)-(4,4-difluorocyclohexyl)(3-(4-methylpiperazin-1-yl)-2-(((3R,5R)-2-oxo-5-(trifluoromethyl)piperidin-3-yl)methyl)imidazo[1,2-b][1,2,4]triazin-6-yl)methyl)-4-ethyl-1,2,5-oxadiazole-3-carboxamide] | < 100 nM | > 1000 nM
16 | Cc1nonc1C(=O)N[C@H](c1cn2nc(C[C@H]3C[C@@H](C(F)(F)F)CNC3=O)c(C3CCOCC3)nc2n1)C1CCCCC1 [Compound 313, N—((S)-cyclohexyl(2-(((3R,5R)-2-oxo-5-(trifluoromethyl)piperidin-3-yl)methyl)-3-(tetrahydro-2H-pyran-4-yl)imidazo[1,2-b][1,2,4]triazin-6-yl)methyl)-4-methyl-1,2,5-oxadiazole-3-carboxamide] | < 100 nM | > 1000 nM
17 | Cc1nonc1C(=O)N[C@H](c1cn2nc(C[C@H]3C[C@@H](C(F)(F)F)CNC3=O)c(C3CCOCC3)nc2n1)C1CC2(C1)CC(F)(F)C2 [Compound 314, N—((S)-(6,6-difluorospiro[3.3]heptan-2-yl)(2-(((3R,5R)-2-oxo-5-(trifluoromethyl)piperidin-3-yl)methyl)-3-(tetrahydro-2H-pyran-4-yl)imidazo[1,2-b][1,2,4]triazin-6-yl)methyl)-4-methyl-1,2,5-oxadiazole-3-carboxamide] | < 100 nM | > 1000 nM
18 | CCc1nonc1C(=O)N[C@H](c1cn2nc(C[C@H]3C[C@@H](C(F)(F)F)CNC3=O)c(C3CCOCC3)nc2n1)C1CC2(C1)CC(F)(F)C2 [Compound 315, N—((S)-(6,6-difluorospiro[3.3]heptan-2-yl)(2-(((3R,5R)-2-oxo-5-(trifluoromethyl)piperidin-3-yl)methyl)-3-(tetrahydro-2H-pyran-4-yl)imidazo[1,2-b][1,2,4]triazin-6-yl)methyl)-4-ethyl-1,2,5-oxadiazole-3-carboxamide] | < 100 nM | > 1000 nM
19 | Cc1nonc1C(=O)N[C@H](c1cn2nc(C[C@H]3C[C@@H](C(F)(F)F)CNC3=O)c(C3CCOCC3)nc2n1)[C@H]1C[C@H]2C[C@H]2C1 [Compound 316, N—((S)-((1R,3r,5S)-bicyclo[3.1.0]hexan-3-yl)(2-(((3R,5R)-2-oxo-5-(trifluoromethyl)piperidin-3-yl)methyl)-3-(tetrahydro-2H-pyran-4-yl)imidazo[1,2-b][1,2,4]triazin-6-yl)methyl)-4-methyl-1,2,5-oxadiazole-3-carboxamide] | 100 to 1000 nM | > 1000 nM
